Measurements as given in patent US6943034B1, “Combinatorial strategies for polymer synthesis” (Affymetrix, Inc., priority 1991, dated 2005).
Where no end group is shown, it is not given here. [ ]: non-standard residue; d: D form.

Legend:
Herz antibody 3E7 = experiment: staining of substrate-bound peptide array with FITC-labelled antibodies, fluorescence intensity; format: binding; conditions: for overall intensity ratios YGGFL:YpGFL:pGGFL:ppGFL: fluorescence intensity of all sites on the slide after staining with FITC-labelled Herz antibody 3E7, ratio relative to ppGFL = 1.0; for fluorescence intensity of peptide sites (FIG. 19): slide stained with FITC-labelled Herz antibody 3E7, result in words
Text: The system was used to synthesize four distinct peptides: YGGFL (SEQ ID NO:1), YpGFL (SEQ ID NO:2), pGGFL (SEQ ID NO:3), and ppGFL (SEQ ID NO:6) (the abbreviations are included in Stryer, Biochemistry, Third Ed. (1988), previously incorporated herein by reference; lower case letters indicate D-optical isomers and upper case letters indicate L-optical isomers). An entire glass substrate was derivatized with TBOC-protected aminopropyltriethoxysilane, deprotected with TFA, coated with FMOC-protected caproic acid (a linker), deprotected with piperidine, and coated with FMOC-protected Glycine-Phenylalanine-Leucine (GFL).
This FMOC-GFL-coated slide was sealed to the channel block, and all 10 grooves were deprotected with piperdine in DMF. After washing the grooves, FMOC Glycine (G) was injected in the odd grooves, and FMOC d-Proline (p) was injected in the even grooves. After a two-hour coupling time, using standard coupling chemistry, all grooves were washed with DMF. The grooves were vacuum dried, the block removed and rotated 90 degrees. After resealing, all grooves were deprotected with piperdine in DMF and washed. FMOC Tyrosine (Y) was injected in the odd grooves, and FMOC p in the even grooves. After coupling the grooves were washed and vacuum dried. Accordingly, 25 regions of each of the compounds YGGFL (SEQ ID NO:1), YpGFL (SEQ ID NO:2), pGGFL (SEQ ID NO:3), and ppGFL (SEQ ID NO:6) were synthesized on the substrate. The substrate was removed and stained with FITC-labelled antibodies (Herz antibody 3E7).

[1] = tested on: complementary base sequence 5′GCGTCGGC-F (SEQ ID NO:5); experiment: Channel Matrix Hybridization Assay; format: binding; conditions: 10 nM target, 15° C., one hour; scanned in 6× SSPE buffer; result in words
Text: A center region of a two by three inch slide was derivatized with bis(2-Hydroxyethyl) aminopropyltriethoxy silane. Six nucleosides were then coupled to the entire reaction region using a synthesis process consisting of deprotection, coupling, and oxidation steps for each monomer applied. These first six nucleosides were coupled in a reaction region defined by a 0.84 inch diameter circular well in an aluminum template clamped to the two by three inch slide.
The seventh and eighth monomers were applied to the substrate by flowing monomer solutions through 100 micron channels in an etched silicon channel block (employed in Example C above). The seventh base was coupled along the long axis (vertical) of the two-inch by three-inch slide, and the eighth base perpendicular to the seventh, along the short axis (horizontal) of the slide. This defined an active matrix region of 1.28 by 1.28 cm having a density of 2,500 reaction regions per square centimeter.
The complete octamer synthesized at the channel intersections formed by the seventh and eighth coupling steps had the following sequence: […]
After completion of the synthesis process, cleavage of exocyclic amines was performed by immersion of the reaction region in concentrated ammonium hydroxide. […] Finally, the reaction region was then scanned using a laser fluorescence detection system while immersed in the buffer.

Row | Substance | overall intensity ratios YGGFL:YpGFL:pGGFL:ppGFL (Herz antibody 3E7) | fluorescence intensity of peptide sites (FIG. 19) (Herz antibody 3E7) | brightness (fluorescence) indicating hybridization with fluoresceinated target chain (FIG. 21) [1]
1 | pGGFL ([dP]GGFL; also: substrate-bound) | 1.1 | near background levels | –
2 | Substrate—(3′)CGCAGCCG(5′) [full octamer] | – | – | brightest regions
3 | YGGFL | 1.7 | most intense | –
4 | ppGFL ([dP][dP]GFL; also: substrate-bound) | 1.0 | near background levels | –
5 | YpGFL (Y[dP]GFL; also: substrate-bound) | 1.5 | – | –
